According to patent US11066369B2, “N-(pyridin-2-yl)pyridine-sulfonamide derivatives and their use in the treatment of disease” (Novartis AG, priority 2016, dated 2021):
Structures can show the parent of a compound that is named as a salt. Where two headings read alike, the source gives them in different places.

Biological target: T1, horseradish peroxidase (HRP) tagged delF508-CFTR (Homo sapiens, UniProt P13569, DEL508-508)
T1 construct: expressed in transfected cells
Test: Measurement of delF508-CFTR-HRP surface expression in CFBE41o- cells;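 on DelF508-CFTR-HRP Amax %: percent efficacy relative to reference corrector lumacaftor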
Format: cell-based
Settings: CFBE41o- cells; for EC50: read-out: DelF508-CFTR-HRP EC50; for Emax: read-out: DelF508-CFTR-HRP Amax %
Source text: Measurement of delF508-CFTR-HRP Surface Expression in CFBE41o-Cells
This assay quantifies the cell surface expressions of the mutant CFTR channel using an extracellular HRP tag.
A cellular assay was developed to measure surface expression of horseradish peroxidase (HRP) tagged delF508-CFTR in the human bronchial epithelial immortalized CFBE41o-cell line (Phuan, P. W., et al, (2014) Molecular Pharmacology 86:42-51). Specifically, the HRP sequence was inserted into the fourth extracellular loop of delF508-CFTR and stably expressed in CFBE41o-cells. Cells were seeded in 384 well plate at a density of 5000 cells/well and incubated at 37° C. for 12 to 24 hours in medium (Gibco MEM #11095, 10% FBS, 10 mM HEPES, […], 200 μg/mL G418, 3 μg/mL Puromycin). The delF508-CFTR-HRP expression was induced with 500 ng/mL doxycycline (Sigma D-9891, dissolved in H2O and sterile filtered) in medium and the cells were incubated at 37° C. for 48h. Old medium was removed and fresh medium was added containing 500 ng/mL doxycycline and unknown test compound at required test concentration in DMSO, not exceeding 0.5% final DMSO concentration. The highest concentration tested was 10 μM with a 10-point concentration response curve using a 3-fold dilution. After addition of compounds, the cells were incubated for 24h at 37° C. On the final day, cells were washed four times in PBS containing 1 mM MgCl2 and 0.1 mM CaCl2. HRP-Substrate (SuperSignal ELISA Pico, Fisher #37069) 20 μl/well was added and the luminescence signal was determined (Viewlux, Perkin Elmer). Light was emitted upon addition of exogenous HRP-Substrate only when delF508-CFTR-HRP reached the cell surface and the HRP tag was accessible to the HRP-Substrate (note: HRP-Substrate cannot cross the lipid bilayer to reach delF508-CFTR-HRP misfolded within the cell).
The median activity for the lowest concentration of the compounds on each assay plate was calculated and this value was used to normalize the signal for each well on the respective plate. Three replicates at each concentrations for every compound were run to determine one EC50. The median value was determined and used to calculate compound activities as described below. Effective half maximal values (EC50) were calculated for each compound by performing logistic regression on measured dose-response data points using the equation:
[formula] where “Y” is the observed activity, “Bottom” is the lowest observed value, “Top” is the highest observed value, and the “Hill coefficient” gives the largest absolute value of the slope. The curve fitting is carried out by a curve fitting program implemented at GNF using Matlab (Mathworks).
The dose response curves also were used to calculate Fold Change (FC) using the equation: […]
Compound efficacy relative to the reference compound 3-(6-(1-(2,2-difluorobenzo[d][1,3]dioxol-5-yl)cyclopropane-1-carboxamido)-3-methylpyridin-2-yl)benzoic acid was determined using the following formula: […]

[1] = mean of at least two replicates
[2] = delF508-CFTR-HRP surface expression

T1 sequence (P13569 with tags, fused parts or gaps DEL508-508): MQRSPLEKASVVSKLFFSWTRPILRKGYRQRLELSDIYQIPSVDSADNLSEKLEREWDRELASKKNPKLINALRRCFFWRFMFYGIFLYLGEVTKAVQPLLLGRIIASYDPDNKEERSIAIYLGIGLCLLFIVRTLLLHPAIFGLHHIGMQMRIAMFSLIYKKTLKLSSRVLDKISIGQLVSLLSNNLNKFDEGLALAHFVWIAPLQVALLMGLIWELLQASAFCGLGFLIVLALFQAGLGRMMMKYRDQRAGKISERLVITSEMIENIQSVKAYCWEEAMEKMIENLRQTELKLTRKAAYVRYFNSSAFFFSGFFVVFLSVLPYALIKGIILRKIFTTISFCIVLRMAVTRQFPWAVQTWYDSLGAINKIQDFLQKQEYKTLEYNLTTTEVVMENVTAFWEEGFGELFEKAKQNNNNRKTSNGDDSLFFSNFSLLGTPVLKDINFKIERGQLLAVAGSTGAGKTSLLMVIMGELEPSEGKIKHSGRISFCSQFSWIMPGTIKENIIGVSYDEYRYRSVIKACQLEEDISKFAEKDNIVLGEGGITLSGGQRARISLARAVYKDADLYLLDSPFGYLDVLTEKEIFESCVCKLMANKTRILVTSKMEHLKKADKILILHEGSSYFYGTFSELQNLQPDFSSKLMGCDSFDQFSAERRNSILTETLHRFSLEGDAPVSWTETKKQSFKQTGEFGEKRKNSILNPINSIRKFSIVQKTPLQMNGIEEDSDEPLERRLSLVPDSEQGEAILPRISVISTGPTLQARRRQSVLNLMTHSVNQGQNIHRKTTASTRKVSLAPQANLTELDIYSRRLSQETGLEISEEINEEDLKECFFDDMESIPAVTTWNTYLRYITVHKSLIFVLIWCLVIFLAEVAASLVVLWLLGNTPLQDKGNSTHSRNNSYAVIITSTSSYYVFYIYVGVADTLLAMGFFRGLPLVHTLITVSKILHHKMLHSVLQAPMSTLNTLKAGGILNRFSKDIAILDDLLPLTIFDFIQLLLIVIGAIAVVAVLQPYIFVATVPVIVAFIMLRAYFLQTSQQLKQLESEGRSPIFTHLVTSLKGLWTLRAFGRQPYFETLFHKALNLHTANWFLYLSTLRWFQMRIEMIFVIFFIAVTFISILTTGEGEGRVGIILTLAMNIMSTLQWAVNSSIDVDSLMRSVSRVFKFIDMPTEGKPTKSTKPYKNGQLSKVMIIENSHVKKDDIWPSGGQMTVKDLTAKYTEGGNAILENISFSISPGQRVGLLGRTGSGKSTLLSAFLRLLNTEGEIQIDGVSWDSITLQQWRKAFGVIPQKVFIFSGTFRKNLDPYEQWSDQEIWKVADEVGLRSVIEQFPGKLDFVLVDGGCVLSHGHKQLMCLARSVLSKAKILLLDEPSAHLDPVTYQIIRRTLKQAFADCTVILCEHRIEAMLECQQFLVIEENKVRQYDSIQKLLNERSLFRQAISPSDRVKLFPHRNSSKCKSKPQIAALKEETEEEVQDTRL

SMILES | EC50 [1] [nM] | Emax [2] [%] | EC50 [2] [nM] | Emax (surface expression Amax) [%]
CC(C)c1ccccc1-c1nc(NS(=O)(=O)c2cccc(N3CCC[C@@](C)(C(=O)O)C3)n2)ccc1C(F)(F)F [Example 384, (R)-1-(6-(N-(6-(2-isopropylphenyl)-5-(trifluoromethyl)pyridin-2-yl)sulfamoyl)pyridin-2-yl)-3-methylpiperidine-3-carboxylic Acid] | 501 |  |  | 
CC1(C(=O)O)CCN(c2cccc(S(=O)(=O)Nc3ccc(C(F)(F)F)c(-c4ccc(F)cc4Cl)n3)n2)CC1 [Example 240, 1-(6-(N-(6-(2-chloro-4-fluorophenyl)-5-(trifluoromethyl)pyridin-2-yl)sulfamoyl)pyridin-2-yl)-4-methylpiperidine-4-carboxylic Acid] |  | 385 | 3420 | 
Cc1ccccc1-c1nc(NS(=O)(=O)c2cccc(N3CCN(C(=O)OC(C)(C)C)[C@@H](C(=O)O)C3)n2)ccc1C(F)(F)F [Example 338, (2R)-1-[(tert-butoxy)carbonyl]-4-(6-{[6-(2-methylphenyl)-5-(trifluoromethyl)pyridin-2-yl]sulfamoyl}pyridin-2-yl)piperazine-2-carboxylic Acid] |  | 542 | 2810 | 
CCC[C@@H]1CCN(c2cccc(S(=O)(=O)Nc3ccc(C(F)(F)F)c(-c4ccccc4C)n3)n2)[C@H]2C[C@H](C(=O)O)[C@@H]12 (racemic) [Example 404, rac-(1SR,5RS,6RS,7SR)-5-propyl-2-(6-(N-(6-(o-tolyl)-5-(trifluoromethyl)pyridin-2-yl)sulfamoyl)pyridin-2-yl)-2-azabicyclo[4.2.0]octane-7-carboxylic Acid] | 786 |  |  | 
Cc1ccc(F)cc1-c1nc(NS(=O)(=O)c2cccc(N3CCC[C@@](C)(C(=O)O)C3)n2)ccc1C(F)(F)F [Example 416, (3R)-1-(6-{[6-(5-fluoro-2-methylphenyl)-5-(trifluoromethyl)pyridin-2-yl]sulfamoyl}pyridin-2-yl)-3-methylpiperidine-3-carboxylic Acid] | 1900 |  |  | 
COC(=O)C1(NC(=O)OC(C)(C)C)CCN(c2cccc(S(=O)(=O)Nc3ccc(Cl)c(-c4c(C)cccc4C)n3)n2)CC1 [Example 267, methyl 4-{[(tert-butoxy)carbonyl]amino}-1-(6-{[5-chloro-6-(2,6-dimethylphenyl)pyridin-2-yl]sulfamoyl}pyridin-2-yl)piperidine-4-carboxylate] |  | 887 | 1260 | 
CC(C)c1ccccc1-c1nc(NS(=O)(=O)c2cccc(N[C@H]3CCC[C@H](C(=O)O)C3)n2)ccc1C(F)(F)F [Example 418, (1S,3S)-3-((6-(N-(6-(2-isopropylphenyl)-5-(trifluoromethyl)pyridin-2-yl)sulfamoyl)pyridin-2-yl)amino)cyclohexanecarboxylic Acid] | 1220 |  |  | 644
Cc1ccc(F)cc1-c1nc(NS(=O)(=O)c2cccc(N3CCN(C(=O)OC(C)(C)C)CC3)n2)ccc1Cl [Example 298, tert-butyl 4-(6-(N-(5-chloro-6-(5-fluoro-2-methylphenyl)pyridin-2-yl)sulfamoyl)pyridin-2-yl)piperazine-1-carboxylate] |  | 677 | 1490 | 
O=S(=O)(Nc1ccc(C(F)(F)F)c(-c2ccc(F)cc2Cl)n1)c1cccc(N2CCNCC2)n1 [Example 153, N-(6-(2-Chloro-4-Fluorophenyl)-5-(Trifluoromethyl)Pyridin-2-yl)-6-(Piperazin-1-yl)Pyridine-2-Sulfonamide Hydrochloride] |  | 159 | 3800 | 
Cc1ccc(C(F)(F)F)cc1-c1nc(NS(=O)(=O)c2cccc(N3CCN(C(=O)OC(C)(C)C)CC3)n2)ccc1Cl [Example 168, tert-butyl 4-(6-(N-(5-chloro-6-(2-methyl-5-(trifluoromethyl)phenyl)pyridin-2-yl)sulfamoyl)pyridin-2-yl)piperazine-1-carboxylate] |  | 271 | 626 | 
Cc1ccc(F)cc1-c1nc(NS(=O)(=O)c2cccc(N3CCN4CC[C@H]3C4)n2)ccc1C(F)(F)F [Example 202, 6-((5S)-1,4-diazabicyclo[3.2.1]octan-4-yl)-N-(6-(5-fluoro-2-methylphenyl)-5-(trifluoromethyl)pyridin-2-yl)pyridine-2-sulfonamide] |  | 159 | 3930 | 

Further lines, results first:

EC50 [1] [nM] | Emax [2] [%] | EC50 [2] [nM] | Emax (surface expression Amax) [%] | SMILES
1520 |  |  | 334 | Cc1ccc(NS(=O)(=O)c2cccc(N3CCC[C@@](C)(C(=O)O)C3)n2)nc1-c1ccccc1C1CC1 [Example 406, (R)-1-(6-(N-(6-(2-cyclopropylphenyl)-5-methylpyridin-2-yl)sulfamoyl)pyridin-2-yl)-3-methylpiperidine-3-carboxylic Acid]
 | 258 | 1100 |  | Nc1cccc(S(=O)(=O)Nc2ccc(Cl)c(-c3ccccc3OC(F)(F)F)n2)n1 [Example 59, 6-amino-N-(5-chloro-6-(2-(trifluoromethoxy)phenyl)pyridin-2-yl)pyridine-2-sulfonamide]
2410 |  |  |  | Cc1ccccc1-c1nc(NS(=O)(=O)c2cccc(N3CCC[C@@](C)(C(=O)O)C3)n2)ccc1Cl [Example 447, (R)-1-(6-(N-(5-chloro-6-(o-tolyl)pyridin-2-yl)sulfamoyl)pyridin-2-yl)-3-methylpiperidine-3-carboxylic Acid]
2040 |  |  |  | C[C@@]1(C(=O)O)CCCN(c2cccc(S(=O)(=O)Nc3ccc(C(F)(F)F)c(-c4ccccc4Cl)n3)n2)C1 [Example 421, (R)-1-(6-(N-(6-(2-chlorophenyl)-5-(trifluoromethyl)pyridin-2-yl)sulfamoyl)pyridin-2-yl)-3-methylpiperidine-3-carboxylic Acid]
 | 148 | 4610 |  | Cc1ccccc1-c1nc(NS(=O)(=O)c2cccc(N[C@H]3CCNC3)n2)ccc1C(F)(F)F [Example 124, (S)-6-(pyrrolidin-3-ylamino)-N-(6-(o-tolyl)-5-(trifluoromethyl)pyridin-2-yl)pyridine-2-sulfonamide Hydrochloride]
 | 376 | 2000 |  | Cc1ccc(Cl)c(-c2nc(NS(=O)(=O)c3cccc(N)n3)ccc2Cl)c1F [Example 38, 6-amino-N-(5-chloro-6-(6-chloro-2-fluoro-3-methylphenyl)pyridin-2-yl)pyridine-2-sulfonamide]
 | 335 | 1400 |  | Cc1cccc(C)c1-c1nc(NS(=O)(=O)c2ccc(N)nc2)ccc1Cl [Example 47, 6-amino-N-(5-chloro-6-(2,6-dimethylphenyl)pyridin-2-yl)pyridine-3-sulfonamide]
 | 373 | 2360 |  | Cc1ccccc1-c1nc(NS(=O)(=O)c2ccc(N)nc2)ccc1Cl [Example 40, 6-amino-N-(5-chloro-6-(o-tolyl)pyridin-2-yl)pyridine-3-sulfonamide]
2430 |  |  | 816 | Cc1ccccc1-c1nc(NS(=O)(=O)c2cccc(N3C[C@H](C(=O)O)CC[C@@H]3C)n2)ccc1C(F)(F)F [Example 464]
 | 59.8 | 3800 |  | COC(=O)C1(O)CCN(c2cccc(S(=O)(=O)Nc3ccc(Cl)c(-c4c(C)cccc4C)n3)n2)CC1 [Example 260, methyl 1-(6-{[5-chloro-6-(2,6-dimethylphenyl)pyridin-2-yl]sulfamoyl}pyridin-2-yl)-4-hydroxypiperidine-4-carboxylate]
 | 235 | 2180 |  | O=S(=O)(Nc1ccc(Cl)c(-c2ccccc2C(F)(F)F)n1)c1cccc(N[C@@H]2COC[C@H]2O)n1 [Example 126, N-(5-chloro-6-(2-(trifluoromethyl)phenyl)pyridin-2-yl)-6-(((3R,4S)-4-hydroxytetrahydrofuran-3-yl)amino)pyridine-2-sulfonamide]
 | 130 | 4420 |  | O=S(=O)(Nc1ccc(Cl)c(-c2cccc(F)c2Cl)n1)c1cccc(N2CCNCC2)n1 [Example 159, N-(5-chloro-6-(2-chloro-3-fluorophenyl)pyridin-2-yl)-6-(piperazin-1-yl)pyridine-2-sulfonamide hydrochloride]
